Experimental data taken from US20220289791A1, “LACTATE DEHYDROGENASE INHIBITOR POLYPEPTIDES FOR USE IN THE TREATMENT OF CANCER” (UNIVERSITÉ CATHOLIQUE DE LOUVAIN, priority 2019, published 2022).
*1 amine or outer side, *2 acyl side, *3 side chain or, on linkers, in order; H or OH if unused. Where a SMILES comes first, the peptide text is derived from it. Bridges are numbered along the chain shown (N, C = ends). C6F4(1,4-diyl) = Fc1c(F)c([*:2])c(F)c(F)c1[*:1]; mXylylene = c1cc(C[*:1])cc(C[*:2])c1

What was measured:
truncated LDHB (LDHBtr) = truncated LDHB (LDHBtr) (Homo sapiens, UniProt P07195); assay: Microscale thermophoresis (MST), Example 2, macrocycles against truncated LDHB; assay type: binding; settings: MST traces at 10 s to 20 s on time
Experimental: (§1) MST measurements were performed on a Nanotemper Monolith NT.115 instrument (NanoTemper Technologies®) using Red-dye-NHS fluorescent labeling. Each LDH sample, purified to homogeneity, was labeled with the Monolith Red-dye-NHS 2nd generation labeling dye (NanoTemper Technologies®), according to the manufacturer's instructions. Measurements were performed in 50 mM sodium phosphate, pH 7.6, and 100 mM NaCl containing 0.05% Tween-20 in premium-treated capillaries (NanoTemper Technologies®). The final concentrations of either labeled protein in the assay were 100 nM. The ligands (NADH and peptides) were titrated in 1:1 dilutions following manufacturer's recommendations. All binding reactions were incubated for 5 min at room temperature after loading into capillaries. Experiments were performed in triplicates using 40% LED power, medium MST power, Laser On time 20 s and Laser Off time 3 s. Peptides were evaluated for their thermophoretic pattern, and Kd's were extracted from raw data at a 10 to 20 s MST on time according to manufacturer's instructions. Regarding interaction of 7 with LDH5, Kd was extracted from the raw fluorescence. A denaturation test was performed accordingly to manufacturer recommendation and excluded any nonspecific spectral interaction between 7 and the red-dye. All Kd's of interacting macrocycles and peptides were obtained in triplicate and corrected by taking into account the molecular weight of the TFA counter ion.

human LDH1 = human LDH1 (Homo sapiens, UniProt P07195); assay: nanoDSF thermal denaturation of LDH1; assay type: binding; settings: for effect on LDH1 stability: nanoDSF
human LDH5 = target: T1, human LDH5 (Homo sapiens, UniProt P00338); assay: nanoDSF thermal denaturation of LDH5; assay type: binding; settings: for effect on LDH5 stability: nanoDSF
T1 construct: purchased Abnova

dimeric model of LDH = dimeric model of LDH (Homo sapiens, UniProt P07195); assay: nanoDSF thermal denaturation of dimeric LDH model; assay type: binding
rabbit LDH5 (rLDH5) = target: T2, rabbit LDH5 (rLDH5) (Oryctolagus cuniculus, UniProt P13491); assay: Denaturation assay: rLDH5 fluorescence recovery after acidic exposure; assay type: biochemical; settings: 200 nM rLDH5, 50 μM peptide, pH 5 then neutral pH
T2 construct: purchased Sigma-Aldrich
Experimental: Rabbit LDHA commercial solution (Sigma-Aldrich®) in an ammonium sulfate suspension (pH-7, 3.2 M) was first diluted to 1 mg/ml in a solution of NaCl 200 mM and then dialyzed at 4° C. 2×2 h against 200 mM NaCl. The stock solution of 1 mg/ml was then diluted to 30 μg/ml (800 nM) in NaCl 20 0 mM to give the assay solution. Assay solution was mixed 1:1 with acetate-chloride buffer (20 mM Acetic acid/Acetate, 180 mM NaCl, 1 mM DTT pH 5) and stored on ice for 30 minutes. Samples were then removed from ice and let warm up for 2 minutes. The acidic solution was then diluted 1:1 with a 250 mM phosphate buffer (pH 7.6) containing or not the inhibitory peptide to yield a 7.5 μg/ml (200 nM) final concentration of re-associating LDHA. Samples of the resulting solutions were then subjected to kinetic experiments of the recovery of intrinsic fluorescence (Exc=286 nm, Em=350 nm, 10′, rt).
An experiment was thus designed to follow the recovery of LDH tetramers after a dissociation step initiated by acidic conditions. […] Monitoring of the rLDH5 tetrameric state was performed by following its intrinsic tryptophan fluorescence: 6 tryptophan residues can be found in each rLDHA monomer, three of them being located at the dimer-dimer interface. As the tryptophan quantum yield decreases in a polar environment, dimeric LDHs show very weak tryptophan fluorescence compared to the tetrameric form. […] Such decay can be compared to the difference in tryptophan fluorescence between tetrameric LDH1 and dimeric LDHBtr.

LDHBtr = LDHBtr (Homo sapiens, UniProt P07195); assay: Intrinsic fluorescence assay on dimeric LDHBtr; assay type: biochemical
Experimental: Full tryptophan fluorescence spectra were recorded using an excitation wavelength of 286 nm and recording the emission spectra from 320 nm to 400 nm at room temperature. Raw fluorescence of every experiments was further subtracted to a corresponding control experiment without the protein. Experiments were performed in a 50 mM sodium phosphate and 100 mM NaCl, pH 7.6, buffer. For LDH dissociation into subunits, increasing amounts of guanidinium/HCl were put in contact with the studied proteins (1.3 μM), and fluorescence spectra were recorded afterwards. Guanidinium/HCl concentrations ranged from 0.3 M to 2 M.

[1] = tested on: Mia Paca-2 human pancreatic cancer cells; assay: Seahorse OCR and ECAR measurement; assay type: cell-based; settings: 200 μM, 4 h incubation
Experimental: Macrocyclic peptide MP7 (SEQ ID NO: 61) was evaluated at 200 μM against Mia Paca-2 human pancreatic cancer cells (ATCC®).
The oxygen consumption rate (OCR) and extracellular acidification rate (ECAR) were measured on a Seahorse XF96 analyzer (Agilent®) with a combination of XF cell mito stress kit (Agilent®) and 2-deoxy-D-glucose (2DG; Sigma Aldrich®). Seahorse experiments were performed using 10,000 cells/well in DMEM medium with 10 mmol/L of D-glucose and 1 mmol/L of L-Glutamine Cells were incubated for 1 h in a CO2-free incubator before analysis. […] Oximetry before the addition of any agent provided the basal respiration rate of the cells; ATP-linked reparation was determined after the addition of 1 μM of oligomycin and the maximal respiration rate of the cells after the addition of 1 μM of FCCP. All data were normalized to cell numbers measured right before oximetry using a SpectraMax miniMax 300 imaging cytometer (Molecular Devices®). Macrocyclic peptide MP7 in PBS or PBS alone (control experiment) were added directly into the medium and incubated with Mia Paca-2 cells during 4 h before conducting Seahorse experiments on the medium composed of the Mia Paca-2 cells with or without macrocyclic peptide MP7.

tetrameric LDH1 = tetrameric LDH1 (Homo sapiens, UniProt P07195); assay: Microscale thermophoresis (MST) on tetrameric LDH1; assay type: binding
Experimental: as §1, with “All Kd's of interacting macrocycles and peptides were obtained in triplicate and corrected by taking into account the molecular weight of the TFA counter ion.” left out

tetrameric LDH5 = target: T3, tetrameric LDH5 (Homo sapiens, UniProt P00338); assay: Microscale thermophoresis (MST) on tetrameric LDH5; assay type: binding
T3 construct: purchased Abnova
Experimental: as §1, with “All Kd's of interacting macrocycles and peptides were obtained in triplicate and corrected by taking into account the molecular weight of the TFA counter ion.” left out

Sequence of human LDH1 (P07195 whole entry): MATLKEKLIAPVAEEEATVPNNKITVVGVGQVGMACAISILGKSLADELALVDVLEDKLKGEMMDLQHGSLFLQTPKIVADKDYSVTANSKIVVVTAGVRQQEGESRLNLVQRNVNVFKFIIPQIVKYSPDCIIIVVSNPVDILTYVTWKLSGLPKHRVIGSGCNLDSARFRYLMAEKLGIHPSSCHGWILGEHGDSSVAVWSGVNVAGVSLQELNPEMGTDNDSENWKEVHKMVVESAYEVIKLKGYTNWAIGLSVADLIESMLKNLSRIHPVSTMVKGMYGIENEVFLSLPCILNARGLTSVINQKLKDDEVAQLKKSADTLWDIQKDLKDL
Sequence of tetrameric LDH1 (P07195 whole entry): as above
Sequence of truncated LDHB (LDHBtr) (P07195 21-334): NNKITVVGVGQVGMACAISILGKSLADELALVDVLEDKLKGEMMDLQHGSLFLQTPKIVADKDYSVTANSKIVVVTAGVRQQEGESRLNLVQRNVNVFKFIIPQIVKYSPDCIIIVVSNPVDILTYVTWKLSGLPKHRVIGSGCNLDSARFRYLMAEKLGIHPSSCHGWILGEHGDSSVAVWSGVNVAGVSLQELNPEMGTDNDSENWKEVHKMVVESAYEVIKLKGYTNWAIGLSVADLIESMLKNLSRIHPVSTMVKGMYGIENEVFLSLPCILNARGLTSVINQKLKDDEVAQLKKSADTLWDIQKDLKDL
Sequence of dimeric model of LDH (P07195 21-334): as above
Sequence of LDHBtr (P07195 21-334): as above

Compound | Kd (truncated LDHB (LDHBtr)) [µM] | ΔTm at 400 µM (human LDH1; LDH1, MP7 at 400 μM) [°C] | effect on LDH1 stability (human LDH1) | ΔTm at 400 µM (human LDH5; LDH-5 tetramer, MP7 at 400 μM) [°C] | effect on LDH5 stability (human LDH5) | destabilization of dimeric model of LDH (dimeric model of LDH) | LDH5 fluorescence recovery after acidification (rabbit LDH5 (rLDH5)) | decay of LDHBtr fluorescence spectrum (LDHBtr) | glycolytic flux (ECAR) [1] | mitochondrial oxygen consumption rate (OCR) [1] | binding to tetrameric LDH1 (tetrameric LDH1) | binding to tetrameric LDH5 (tetrameric LDH5)
CC[C@H](C)[C@H](NC(=O)[C@H](CC(C)C)NC(=O)[C@H](CCCCN)NC(=O)[C@@H]1CSc2c(F)c(F)c(c(F)c2F)SC[C@H](N)C(=O)N[C@@H]([C@@H](C)O)C(=O)N[C@@H](CC(C)C)C(=O)N[C@@H](CCCCN)C(=O)N1)C(N)=O [MP7, CTLKCKLI] (H-CTLKCKLI-NH2; linker 1-5 via C6F4(1,4-diyl); N-terminus assumed) | 11 | -1.5 | induced a destabilizing conformational change | -5 | induced a destabilizing conformational change | did not induce such destabilization | significantly interfered | did not induce a comparative decay | increase | strong decrease | – | –
CC[C@H](C)[C@H](NC(=O)[C@H](CC(C)C)NC(=O)[C@H](CCCCN)NC(=O)[C@@H]1CSCc2cccc(c2)CSC[C@H](N)C(=O)N[C@@H]([C@@H](C)O)C(=O)N[C@@H](CC(C)C)C(=O)N[C@@H](CCCCN)C(=O)N1)C(N)=O [MP1, CTLKCKLI] (H-CTLKCKLI-NH2; linker 1-5 via mXylylene; N-terminus assumed) | – | – | no effect up to 500 μM | – | no effect up to 500 μM | – | significantly interfered | – | – | – | did not demonstrated any binding | did not demonstrated any binding
